According to PMC11172460 (International Journal of Molecular Sciences, 2024):

Columns and labels:
[1] = tested on: differentiated N2a cells; assay: MTT assay of H2O2-altered viability (neuroprotection); assay type: cell-based, mouse; details: then 100 µM H2O2 for 24 h
Procedure: (§1) N2a cells were seeded on T75 flasks and grown in Dulbecco’s Modified Eagle Medium (DMEM) containing Glutamax, supplemented with 100 μg/mL streptomycin, 100 IU/mL penicillin, and 10% fetal bovine serum (FBS) in a humidified 5% CO2 atmosphere at 37 °C. After two passages by trypsinization, cells were seeded at a density of 5 × 10^3 cells/well in 12-well plates with 2 mL of DMEM or at a density of 5 × 10^2 cells/well in 96-well plates with 0.2 mL of DMEM, depending on the study (see below). For neural differentiation, N2a cells were allowed to adhere and proliferate in wells for 4 days; then, after washing once with serum-free DMEM, differentiating medium composed of DMEM containing 1% HS and 20 μM all-trans-retinoic acid (atRA) was added in both the seeding conditions, up to 6 days of differentiation, after which the cells were used for the experiments.
The MTT assay was also carried out to determine the neuroprotective effect of Fer-Ger on H2O2-induced cell oxidative stress in N2a neuronal cells. Briefly, N2a cells (5 × 10^2) were seeded and differentiated into 96-well plates, as reported above. Then, cells were incubated with 1 µM and 5 µM Fer-Ger dissolved in DMEM containing 0.5% HS for 1 h in a humidified 5% CO2 atmosphere at 37 °C. The experimental design therefore included cells incubated with only culture medium as a control and cells incubated for 24 h with 100 µM H2O2 as a damage-inducing agent after 1 h of preincubation in the absence or presence of 1 µM or 5 µM Fer-Ger. Then, 20 μL of MTT (5 mg/mL) was added into the 200 µL of the incubation medium. Four hours later, the medium containing MTT was aspirated and replaced by 100 µL of dimethyl sulfoxide (DMSO) solubilization agent for 1 h at 37 °C in an orbital shaker incubator. Finally, the absorbance of each well was measured at 570 nm using a microtiter plate reader (Sunrise® Microplate Reader, Tecan Trading AG, Männedorf, Switzerland).

[2] = tested on: differentiated N2a cells; assay: DCFH-DA assay of intracellular ROS production; assay type: cell-based, mouse
Procedure: as §1
The potential antioxidant effect of Fer-Ger was evaluated according to the original method of Wang and Joseph. In this method, the nonpolar 2′,7′-dichlorofluorescin diacetate (DCFH-DA) enters the intact cells and is hydrolyzed by intracellular esterases to nonfluorescent DCFH carboxylate anion, which remains entrapped and becomes the high fluorescent dichlorofluorescin (DCF) after oxidation by free radicals generated by a stressor, such as H2O2. Therefore, H2O2-induced intracellular ROS production was measured in N2a cells by a florescence intensity assay following exposure to the oxidation-sensitive dye DCFH-DA. N2a cells were seeded at a density of 1 × 10^4 cells/well in a black-coated and clear bottom 96-well plate and neuron-differentiated as reported above. After 6 days, differentiating medium in N2a cells was replaced with pre-warmed phenol-red-free and serum-free DMEM containing 10 µM DCFH-DA and incubated for 30 min in the dark in a humidified 5% CO2 atmosphere at 37 °C. The 10 µM DCFH-DA loading solution was then removed, and the cells were washed twice with fresh phenol-red-free and serum-free DMEM to remove the redundant extracellular DCFH-DA probe. Subsequently, N2a cells were incubated with pre-warmed phenol-red free DMEM containing 1% FBS as an untreated control and with solutions dissolved in phenol-red free DMEM containing 1% FBS of Fer-Ger (1, 5, or 10 µM) or 100 µM ascorbic acid (AA, as an established antioxidant positive control) and incubated for 1 h in a humidified 5% CO2 atmosphere at 37 °C. After this time, 100 µM H2O2 was added in the absence or presence of 1, 5 or 10 µM Fer-Ger or 100 µM AA, and the fluorescence intensity was measured at an excitation wavelength of 485 nm and at an emission wavelength of 530 nm, monitoring the oxidation of DCFH to DCF by the intracellular ROS by running the kinetic over 75 min in a fluorescence microplate reader (VICTOR^3TM 1420 Multilabel counter, PerkinElmer, Milan, Italy). Results were represented as a percentage of intracellular ROS production (100% of control) resulting from the mean values ± SEM of sextuplicate wells over time.

COc1cc(/C=C/C(=O)OC/C=C(\C)CCC=C(C)C)ccc1O [Fer-Ger, Geranyl ferulate]
prevention of H2O2-induced cell viability damage ([1]; 1 µM Fer-Ger preincubated 1 h): fully prevented | prevention of H2O2-induced cell viability damage ([1]; 5 µM Fer-Ger preincubated 1 h): fully prevented | effect on basal ROS production ([2]; Fer-Ger 1, 5 and 10 µM alone, 75 min): did not affect the ROS production | effect on H2O2-induced ROS production ([2]; Fer-Ger 1, 5 and 10 µM with 100 µM H2O2, all times tested, p < 0.05): increased the H2O2-induced ROS production
